The values below come from patent US20130131018A1, “SUBSTITUTED ISOQUINOLINES AND THEIR USE AS TUBULIN POLYMERIZATION INHIBITORS” (Exonhit S.A., priority 2010, published 2013).

Structures can show the parent of a compound that is named as a salt. Where two headings read alike, the source gives them in different places.

The test system of one assay is K562 cell line. The experiment in a line: MTT assay: cytotoxicity against the K562 cell line. Format: cell-based. The following applies: K562 cells, 72 h, growth inhibition. The method, then: Assessment of Cell Viability via MTT Assay: Cytotoxicity of compounds against the K562 cell line was assessed using the [3-(4,5-dimethylthiazol-2-yl)-2,5-diphenyl tetrazolium bromide] (MTT) assay. Fifteen thousand tumor cells were seeded into wells of flat-bottomed 96-well plates. An amount of 2 μL of a dilution series of each compound dissolved in DMSO was added to 198 μL of appropriate growth medium at three replicates per concentration and the plates were incubated in a 5% CO2 incubator at 37° C. After 72 h, the number of metabolically active cells was determined by MTT assay. Absorbance of each well was measured at 550 nm on a Tecan Sunrise reader. Dose-response curves for growth inhibition were generated as a percentage of untreated control. IC50 was determined by nonlinear regression (Prism, Graph Pad Software, Inc.).

A further assay deals with T1, purified tubulin (Sus scrofa, UniProt P02550+P02554).
T1 construct: purchased Cytoskeleton #BK006P
T1 sequence (P02554 whole entry): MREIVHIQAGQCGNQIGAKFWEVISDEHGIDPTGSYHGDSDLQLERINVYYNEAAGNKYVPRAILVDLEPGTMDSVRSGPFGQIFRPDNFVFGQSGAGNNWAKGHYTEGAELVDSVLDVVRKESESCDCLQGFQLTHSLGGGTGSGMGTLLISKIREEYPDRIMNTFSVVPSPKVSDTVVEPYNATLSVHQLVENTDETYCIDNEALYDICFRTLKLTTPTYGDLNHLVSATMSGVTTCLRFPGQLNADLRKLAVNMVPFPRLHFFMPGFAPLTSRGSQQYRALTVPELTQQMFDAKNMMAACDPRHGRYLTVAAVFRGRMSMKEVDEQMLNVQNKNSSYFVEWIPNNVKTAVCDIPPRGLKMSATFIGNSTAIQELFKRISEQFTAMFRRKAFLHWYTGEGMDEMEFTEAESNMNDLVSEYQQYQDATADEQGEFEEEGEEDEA
T1 sequence (P02550 whole entry): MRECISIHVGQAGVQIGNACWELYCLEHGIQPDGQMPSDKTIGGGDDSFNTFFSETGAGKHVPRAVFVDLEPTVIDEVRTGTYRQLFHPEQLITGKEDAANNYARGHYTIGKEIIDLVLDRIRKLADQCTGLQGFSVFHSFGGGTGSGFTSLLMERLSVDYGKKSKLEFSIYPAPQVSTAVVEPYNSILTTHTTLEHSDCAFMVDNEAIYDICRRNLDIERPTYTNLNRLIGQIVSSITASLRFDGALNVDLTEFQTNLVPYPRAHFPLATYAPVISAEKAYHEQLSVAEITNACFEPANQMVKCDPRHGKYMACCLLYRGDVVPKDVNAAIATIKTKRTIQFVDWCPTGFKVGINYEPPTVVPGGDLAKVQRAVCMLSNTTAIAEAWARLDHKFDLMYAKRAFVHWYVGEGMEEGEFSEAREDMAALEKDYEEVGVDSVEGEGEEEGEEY
The assay is described as follows: Tubulin polymerisation assay (CytoDYNAMIX Screen kit, absorbance at 340 nm). Format: biochemical. The following applies: for inhibition at 5 µM / % Inhibition of tubulin polymerization at 5 μM: 5 μM compound, 4 mg/ml tubulin; for inhibition at 5 µM: read-out: % Inhibition of tubulin polymerization at 5 μM; for IC50: tubulin polymerization. The method, then: The polymerization of purified tubulin was monitored spectrophotometrically by the change in absorbance at 340 nm using the CytoDYNAMIX Screen kit (#BK006P, Cytoskeleton) according to the instructions of the manufacturer. […] The absorbance was measured at 1 minute intervals for 60 minutes. The test compound was added to a 4 mg/ml tubulin solution containing 10% glycerol and 1 mM GTP in Buffer 1 (Buffer 1: 80 mM PIPES; 2 mM MgCl2; 0.5 mM EGTA, pH 6.9). Increased absorbance indicates increase in microtubule formation from tubulin heterodimers.

For assay [1], the system named is Endothelial cells (HUVEC). The assay is described as follows: Neovessels formation inhibition (capillary tube formation on Matrigel). The following applies: HUVEC on Matrigel, compounds overnight. Format: cell-based. How it is done:
The capability of compounds to inhibit the formation of capillaries was evaluated in vitro. Twenty thousand Endothelial cells (HUVEC) were placed on a Matrigel matrix and allowed to form capillary tubes in the presence or absence of the compounds overnight. The cells were stained with calcein AM, and the effect of the compounds on capillary tube formation was assessed using an inverted fluorescent microscope (Nikon). The reference compound used in this assay AVE-8063 is 3-amino-deoxycombretastatin A-4.

The test system of another assay is HUVEC. The experiment in a line: Pre-established vessels disruption (capillary tubes on Matrigel). The following applies: HUVEC tubes formed 5 hours, then compounds overnight. It counts as cell-based. How it is done:
To explore the effect of the compounds on pre-established vasculature, twenty thousand cells (HUVEC) were seeded and incubated over Matrigel for 5 hours to allow the capillary tubes to form. Then, compounds were added and incubated overnight. The disappearance of existing vasculature was monitored with fluorescent microscopy.

[2] abbreviates: Homo sapiens, read-out: Neovessels Formation Inhibition Number of Branch Junctions IC50.
Where [3] appears, read: Homo sapiens, read-out: Neovessels Formation Inhibition Total Tubule Length IC50.
The mark [4] stands for this setting: Homo sapiens, read-out: Pre-established Vessels Disruption Number of Branch Junctions IC50.
[5] abbreviates: Homo sapiens, read-out: Pre-established Vessels Disruption Total Tubule Length IC50.
Where [6] appears, read: read-out: Neovessels Formation Inhibition Number of Branch Junctions IC50.
Setting [7] is: read-out: Neovessels Formation Inhibition Total Tubule Length IC50.
The mark [8] stands for this setting: read-out: Pre-established Vessels Disruption Number of Branch Junctions IC50.
Setting [9] is: read-out: Pre-established Vessels Disruption Total Tubule Length IC50.

Consider `COc1ccc(/C=C\c2cc(OC)c(OC)c(OC)c2)cc1NC(=O)[C@@H](N)CO` [AVE8062, reference compound], for which the 50% inhibitory concentration (IC50) worked out at 0.00778 µM in the assay on K562 cell line (Homo sapiens); 1.79 µM at purified tubulin; 0.0139 µM in assay [1] (setting [2]); 0.0154 µM in assay [1] (setting [3]); 0.0325 µM in the assay with HUVEC (setting [4]); 0.0529 µM in the assay on HUVEC (setting [5]). In addition, the inhibition at 5 µM at purified tubulin stood at 59.8%.

Consider `COc1ccc(/C=C\c2cc(OC)c(OC)c(OC)c2)cc1N` [AVE8063, 3-amino-deoxycombretastatin A-4, reference compound], for which the half-inhibitory concentration (IC50) is 0.00271 µM in the assay with K562 cell line; 1.07 µM on purified tubulin; 0.00312 µM in assay [1] (setting [6]); 0.00533 µM in assay [1] (setting [7]); 0.00572 µM with HUVEC (setting [8]); 0.00774 µM in the assay with HUVEC (setting [9]). Further, the “% Inhibition of tubulin polymerization at 5 μM” value (shortened to “% Inhibition”) on purified tubulin is reported as 71.29%.

Consider `COc1cc(C(=O)c2c(C)oc3c(O)c(OC)ccc23)cc(OC)c1OC` [BNC105, reference compound], for which the IC50 is 0.00055 µM in the assay with K562 cell line; 1.78 µM against purified tubulin; 0.00176 µM in assay [1] (setting [6]); 0.00249 µM in assay [1] (setting [7]); 0.0052 µM with HUVEC (setting [8]); 0.00637 µM in the assay on HUVEC (setting [9]). The “% Inhibition” value on purified tubulin stood at 64.75%.

With `COc1cc(C(=O)c2c(C)oc3c(OP(=O)([O-])O)c(OC)ccc23)cc(OC)c1OC.[Na+]` [BNC105P, reference compound], the IC50 in the assay with K562 cell line was 0.0173 µM; against purified tubulin, 4.1 µM; in assay [1] (setting [6]), 0.00044 µM; in assay [1] (setting [7]), 0.00153 µM; in the assay on HUVEC (setting [8]), 0.00583 µM; with HUVEC (setting [9]) it was 0.00737 µM. The “% Inhibition” value on purified tubulin is on record as 39.00%.

For `COc1ccc(/C=C\c2cc(OC)c(OC)c(OC)c2)cc1O` [Combretastatin, reference compound], in the assay with K562 cell line (Homo sapiens), half-maximal inhibition (IC50) was put at 0.00207 µM. In addition, the inhibition at 5 µM at purified tubulin was found to be 68.9%.

For `CCOc1ccc2c(Cc3cc(OC)c(OCC)c(OC)c3)cncc2c1O` [Compound 14, 4-(4-Ethoxy-3,5-dimethoxybenzyl)-7-ethoxyisoquinolin-8-ol hydrochloride], the half-inhibitory concentration (IC50) came to 0.0303 µM with K562 cell line (Homo sapiens), 1.05 µM on purified tubulin, 0.0311 µM in assay [1] (setting [2]) and 0.0395 µM in assay [1] (setting [3]).

With `CCOc1cc(Cc2cncc3c(O)c(OCC)ccc23)cc(OC)c1OC` [Compound 15, 4-(3-Ethoxy-4,5-dimethoxybenzyl)-7-ethoxyisoquinolin-8-ol hydrochloride], the IC50 with K562 cell line (Homo sapiens) is 0.105 µM; against purified tubulin it was 0.97 µM. Moreover, the inhibition at 5 µM at purified tubulin worked out at 69%.

Regarding `CCOc1ccc2c(Cc3cc(OC)c(OCC)c(OC)c3)cncc2c1N` [Compound 18, 4-(4-Ethoxy-3,5-dimethoxybenzyl)-7-ethoxyisoquinolin-8-amine dihydrochloride], the IC50 with K562 cell line (Homo sapiens) worked out at 0.0132 µM; against purified tubulin, 0.99 µM; in assay [1] (setting [2]), 0.013 µM; in assay [1] (setting [3]), 0.0187 µM; with HUVEC (setting [4]), 0.0178 µM; in the assay on HUVEC (setting [5]), 0.0321 µM. Also, the inhibition at 5 µM at purified tubulin worked out at 61.4%.

Turning to `CCCOc1c(OC)cc(Cc2cncc3c(O)c(OCC)ccc23)cc1OC` [Compound 19, 4-(3,5-Dimethoxy-4-propoxybenzyl)-7-ethoxyisoquinolin-8-ol hydrochloride], the IC50 in the assay on K562 cell line (Homo sapiens) worked out at 0.0215 µM; against purified tubulin, 1.85 µM; in assay [1] (setting [2]), 0.0144 µM; in assay [1] (setting [3]), 0.023 µM; in the assay on HUVEC (setting [4]), 0.00633 µM; in the assay on HUVEC (setting [5]), 0.0159 µM. In addition, at purified tubulin, the inhibition at 5 µM was 61.9%.

In the case of `CCOc1ccc2c(Cc3cc(OC)c(OCC(C)C)c(OC)c3)cncc2c1O` [Compound 20, 4-(4-Isobutoxy-3,5-dimethoxybenzyl)-7-ethoxyisoquinolin-8-ol hydrochloride], the IC50 was determined as 0.0208 µM in the assay on K562 cell line (Homo sapiens); 1.52 µM at purified tubulin; 0.0249 µM in assay [1] (setting [2]); 0.0319 µM in assay [1] (setting [3]); 0.0223 µM in the assay on HUVEC (setting [4]); 0.0317 µM with HUVEC (setting [5]). Further, on purified tubulin, the inhibition at 5 µM amounted to 56.9%.

As for `CCOc1ccc2c(Cc3cc(OC)c(OC)c(OC)c3)cncc2c1OS(N)(=O)=O` [Compound 21, 4-(3,4,5-Trimethoxybenzyl)-7-ethoxyisoquinolin-8-yl sulfamate hydrochloride], the IC50 with K562 cell line (Homo sapiens) was found to be 0.0369 µM; at purified tubulin, 1.09 µM; in assay [1] (setting [2]), 0.0473 µM; in assay [1] (setting [3]) it was 0.0528 µM; in the assay with HUVEC (setting [4]), 0.0267 µM; in the assay on HUVEC (setting [5]), 0.0605 µM. Moreover, the inhibition at 5 µM on purified tubulin is 65.8%.

Consider `COc1ccc2c(C(=O)c3cc(OC)c(OC)c(OC)c3)cncc2c1` [Compound 28, (7-Methoxyisoquinolin-4-yl)(3,4,5-trimethoxyphenyl)methanone hydrochloride], for which half-maximal inhibition with K562 cell line (Homo sapiens) (IC50) was put at 0.0421 µM. The inhibition at 5 µM on purified tubulin worked out at 44.5%.

`CCOc1ccc2c(Cc3cc(OC)c(OCC(F)(F)F)c(OC)c3)cncc2c1O` [Compound 30, 4-(3,5-Dimethoxy-4-(2,2,2-trifluoroethoxy)benzyl)-7-ethoxyisoquinolin-8-ol hydrochloride] returned an IC50 in the assay on K562 cell line (Homo sapiens) of 0.0638 µM. For the same molecule, the inhibition at 5 µM at purified tubulin is 21%.

The molecule `CCOc1ccc2c(Cc3cc(OC)c(OCC(C)C)c(OC)c3)cncc2c1N` [Compound 31, 4-(4-Isobutoxy-3,5-dimethoxybenzyl)-7-ethoxyisoquinolin-8-amine dihydrochloride] displayed an IC50 with K562 cell line (Homo sapiens) of 0.037 µM. For the same molecule, at purified tubulin, the inhibition at 5 µM amounted to 55.4% and the concentration for half-maximal inhibition (IC50) worked out at 1.54 µM.

`CCOc1ccc2c(Cc3cc(OC)c(OCCC(C)C)c(OC)c3)cncc2c1O` [Compound 33, 7-Ethoxy-4-(4-(isopentyloxy)-3,5-dimethoxybenzyl)isoquinolin-8-ol hydrochloride] had an IC50 in the assay with K562 cell line (Homo sapiens) of 0.16 µM. Besides, at purified tubulin, the inhibition at 5 µM was found to be 59% and half-maximal inhibition (IC50) required 1.31 µM.

`CCCCOc1c(OC)cc(Cc2cncc3c(O)c(OCC)ccc23)cc1OC` [Compound 38, 4-(4-Butoxy-3,5-dimethoxybenzyl)-7-ethoxyisoquinolin-8-ol hydrochloride] had an IC50 in the assay with K562 cell line (Homo sapiens) of 0.0304 µM. Also, on purified tubulin, the inhibition at 5 µM turned out to be 67.4% and the IC50 was 1.11 µM.

With `CCCOc1c(OC)cc(C(=O)c2cncc3c(N)c(OCC)ccc23)cc1OC` [Compound 66, (8-Amino-7-ethoxyisoquinolin-4-yl)(3,5-dimethoxy-4-propoxyphenyl)methanone hydrochloride], the 50% inhibitory concentration (IC50) turned out to be 0.00427 µM in the assay with K562 cell line (Homo sapiens); 0.00223 µM in assay [1] (setting [2]); 0.00358 µM in assay [1] (setting [3]); 0.00376 µM with HUVEC (setting [4]); 0.00547 µM with HUVEC (setting [5]).

As to `CCOc1ccc2c(C(=O)c3cc(OC)c(OCC(C)C)c(OC)c3)cncc2c1OC(C)=O` [Compound 78, 7-Ethoxy-4-(4-isobutoxy-3,5-dimethoxybenzoyl)isoquinolin-8-yl acetate], the IC50 with K562 cell line (Homo sapiens) was determined as 0.00702 µM; in assay [1] (setting [3]) it was 0.00807 µM; in the assay with HUVEC (setting [4]) it was 0.0111 µM; with HUVEC (setting [5]), 0.0194 µM.

On to `CCOc1ccc2c(C(=O)c3cc(OC)c(OC)c(OC)c3)cncc2c1NC(=O)CN` [Compound 112, 2-Amino-N-(7-ethoxy-4-(3,4,5-trimethoxybenzoyl)isoquinolin-8-yl)acetamide], for which the IC50 was 0.0079 µM in the assay with K562 cell line (Homo sapiens); 0.0164 µM in assay [1] (setting [2]); 0.0313 µM in assay [1] (setting [3]); 0.0685 µM in the assay on HUVEC (setting [4]); 0.0628 µM in the assay on HUVEC (setting [5]).
